Results from patent publication US20070031511A1, “Method of treatment” (priority 2003, published 2007).
Values belong to the compound of their own block, whether it stands above or below them.

Legend:
CCK-2 receptor = target: T1, CCK-2 receptor (Homo sapiens, UniProt P32239); assay: [125I]-BH-CCK8 displacement, CCK-2 receptor on Jurkat cells; format: binding
T1 sequence (P32239 1-447): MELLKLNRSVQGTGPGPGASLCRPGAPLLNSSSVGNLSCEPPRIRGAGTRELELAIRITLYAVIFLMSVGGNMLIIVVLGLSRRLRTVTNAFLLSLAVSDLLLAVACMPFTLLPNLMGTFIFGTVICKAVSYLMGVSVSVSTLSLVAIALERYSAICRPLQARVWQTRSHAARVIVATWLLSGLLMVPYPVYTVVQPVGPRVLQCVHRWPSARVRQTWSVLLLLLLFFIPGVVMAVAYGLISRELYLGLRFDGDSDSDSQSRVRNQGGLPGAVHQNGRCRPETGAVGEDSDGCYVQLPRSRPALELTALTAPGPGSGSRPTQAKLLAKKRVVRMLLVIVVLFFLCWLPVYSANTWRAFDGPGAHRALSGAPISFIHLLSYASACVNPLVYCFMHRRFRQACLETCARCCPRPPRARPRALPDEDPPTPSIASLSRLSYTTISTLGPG
Method: Non-specific binding was evaluated with […] of unlabelled CCK8. Incubation was stopped by adding 2 ml of ice-cold PBS containing 2% bovine serum albumin. After centrifugation, supernatants were removed and the radioactivity bound to the cell membranes was measured in a γ-counter (LKB, Wallac, Finland).

Ggly receptor = assay: [125I]-Ggly binding to the Ggly receptor on IMGE-5 cells; parameters: species or system mice
Method: [^125I]-Ggly binding assays were carried out by previously described methods (Yang et al, 2001). Briefly, 5×10^5 IMGE-5 cells/well were seeded in 6-well plates and grown at 33° C. for 24 hours. The cells were then serum starved and shifted to 39° C. for 24 h. […] Cells were then washed three times in ice-cold PBS and lysed with 1 M NaOH, and the amount of radioactivity bound was measured in a γ-counter.

[1] = read-out: Kd for binding of ferric ions to Ggly; pH 4.0; taken from Baldwin et al. (2001); cited from earlier work
IMGE-5 cells = assay: IMGE-5 cell proliferation, [3H]-thymidine incorporation; format: cell-based, mice; details: IMGE cells, thymidine uptake; best fit at saturating concentration
Method: In some cases cell proliferation was also measured by [^3H]-thymidine incorporation as described previously (Oiry et al., 2000). Briefly, IMGE-5 cells (10^5/well) were seeded in 24-well plates in medium containing 10% FBS and 1 unit/ml γ-interferon. On the next day cells were serum starved and shifted to 39° C. for 24 hr. Cells were then incubated with or without various compounds at 39° C. for 17 h in medium supplemented with 0.2% bovine serum albumin only. Cells were incubated with 0.5 μCi of [^3H] thymidine in the same medium at 39° C. for 4 h, washed twice with PBS (2.7 mM KCl, 142 mM NaCl, 1.5 mM KH2PO4, 10 mM Na2HPO4, pH 6.95) containing 0.2% bovine serum albumin and incubated at 4° C. for 30 min with 5% trichloroacetic acid. Finally cells were washed with 95% ethanol to remove unincorporated [^3H] thymidine, and lysed with 1 M NaOH. Lysates were transferred to counting vials and neutralized with 1M HCl. The radioactivity of each lysate was counted in a β-counter after the addition of 10 ml of Pico-fluor 40 solution (Packard, Meriden, Conn.).
In some experiments IMGE-5 cells were seeded in a 96-well plate at a density of 3-5×10^3 cells/well in.DMEM containing 10% FBS, and cultured at 33° C.. On the following day, the cells were serum-starved at 33° C. for 24 h. […] The cells were cultured at 39° C. for 24 h, and then harvested using a NUNC cell harvester. The amount of ^3H-thymidine incorporated through DNA synthesis was detected with a β-counter (Packard, Meriden, Conn.). […]

[2] = system: IMGE-5 gastric epithelial cells; assay: Ggly-stimulated inositol phosphate production in IMGE-5 cells; format: cell-based, mice
Method: Intracellular inositol phosphate production was determined as described previously (Qian et al, 1993). IMGE-5 cells (10^5 cells/ml) were plated in 24-multiwell culture plates in DMEM supplemented with 10% FBS, 200 IU/ml penicillin and 200 μg/ml streptomycin. 24 h later, cells were incubated with DMEM supplemented with antibiotics and Myo-[2-^3H]inositol (2.5 μCi/well) and shifted to 39° C. for 16 h. Cells were then washed with pre-warmed DMEM and incubated (20-30 minutes, 37° C.) with DMEM supplemented with 20 mM LiCl. Loaded cells were then washed in 1 ml of IP buffer (135 mM NaCl, 20 mM N-(2-hydroxyethyl)piperazine-N′-(2-ethanesulfonic acid), 2 mM CaCl2, 1.2 mM MgSO4, 1 mM ethylene glycol-bis(2-aminoethylether)-N,N,N′,N′-tetraacetic acid, 10 mM LiCl, and 0.5% bovine serum albumin, pH 7.45) and incubated with or without agonist in a final volume of 0.5 ml of IP buffer. After 1-h incubation at 37° C., the reaction was stopped by removing the incubation medium and adding 1 ml of a mixture of ethanol/HCl (2000:1; v/v). One ml of each aliquot was applied to a column containing 1.6 ml of a 1:2 (v/v) Dowex AG-1-X8 anion exchange resin in distilled water. […] The radioactivity of each eluate was counted after addition of Complete phase combining system solution (Amersham, UK). […]
Ggly-stimulated inositol phosphate production was measured in HT29 human colorectal carcinoma cells.

- % Maximum Binding (Jurkat) (CCK-2 receptor; binding in the absence of competitor, fitted, mean ± S.E.): 100.0 ± 3.1%
- % Maximum Binding (Jurkat) (CCK-2 receptor; presence and absence of 1 μM DFO): 99.0 ± 0.4%
- Ordinate intercept, FIG. 24B (CCK-2 receptor; single experiment, presence and absence of 1 μM DFO): 99.6%
Compound: CSCC[C@H](NC(=O)[C@H](Cc1c[nH]c2ccccc12)NC(=O)CNC(=O)[C@H](Cc1ccc(O)cc1)NC(=O)[C@H](C)NC(=O)[C@H](CCC(=O)O)NC(=O)[C@H](CCC(=O)O)NC(=O)[C@H](CCC(=O)O)NC(=O)[C@H](CCC(=O)O)NC(=O)[C@H](CCC(=O)O)NC(=O)[C@H](CC(C)C)NC(=O)[C@H](Cc1c[nH]c2ccccc12)NC(=O)[C@@H]1CCCN1C(=O)CNC(=O)[C@@H]1CCC(=O)N1)C(=O)N[C@@H](CC(=O)O)C(=O)N[C@@H](Cc1ccccc1)C(N)=O [Gamide]

Compound: [Bi+3] [bismuth ions]
- Inhibition of [125I]-Ggly binding (Ggly receptor; 2 moles Bi3+/mole Ggly): 50%
- Inhibition of [125I]-Ggly binding (Ggly receptor; 8 or 32 moles Bi3+/mole Ggly): complete inhibition

Compound: Ggly: glycine-extended gastrin17, 18 amino acid non-amidated gastrin, SEQ ID NO:4, residues 55-72 of progastrin (XGPWLEEEEEAYGWMDFG; (1)..(1) pyroglutamate; listed as Homo sapiens)
- Kd [1]: 600 nM
- S (%), maximum % stimulation (IMGE-5 cells): 37.3%
- Ggly stimulation of inositol phosphate production compared to the control [2]: 110%
